The target in the assay is Mu-type opioid receptor (Cavia porcellus, UniProt P97266). The experiment in a line: Inhibitory activity against opioid receptor mu of guinea pig brain using [3H]DAGO radioligand.

pIC50: −log10 of the molar value.

Sequence of Mu-type opioid receptor (P97266 whole entry): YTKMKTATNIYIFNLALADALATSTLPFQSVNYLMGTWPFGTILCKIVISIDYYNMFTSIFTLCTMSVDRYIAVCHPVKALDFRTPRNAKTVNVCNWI

The pIC50 is the IC50 on a negative log10 scale, so that one unit is a factor of ten. A low value points to a high IC50. As to `CN1CC[C@]23CCCC[C@H]2[C@H]1Cc1ccc(O)cc13` [LEVORPHANOL], the pIC50 was 9.22.

These data come from ChEMBL document CHEMBL1124488 (J Med Chem, 1989).
